From patent publication US8168199B2, “Dipeptidyl peptidase IV inhibitors for the treatment of schizophrenia and depression” (priority 2000, dated 2012)

Assays:
[1] = test system: Male WistarF/Han (WF) rats; assay: Social interaction (SI) test with Y1R antagonist BIBP3226, P32/98 and NPY (Example 4); type: in vivo, rat; details: i.c.v. 50 nmol
Description: (§1) Animals. Male WistarF/Han (WF) rats (Central Animal Laboratory, Hannover Medical School, Hannover, Germany, weighing 330±31 g±SD, were housed in a sound-proof, temperature controlled (24.0±0.5° C.) room under specific pathogen free conditions with a 12/12 h dark/light cycle (lights on at 07.00 with illumination level of 80 Lux). Food (Altromin lab chow pellets) and tap water were available ad libitum. Under ketamine/xylasine (100/5 mg/kg, i.p.) anesthesia, the rats were fixed in a Kopf stereotaxic frame and implanted with cannulae (Plastic One, Inc., Roanoke, Va., USA) above the lateral ventricle. All research and animal care procedures were approved by the Lower Saxony district government (Hannover, Germany) and followed principles described in the European Community's Council Directive of 24 Nov. 1986 (86/609/EEC).
(§2) Surgery and i.c.v. application. […]
(§3) Animals were randomly divided into eight experimental groups (n=6-8/group), which completed one SI test of anxiety: (1) aCSF+aCSF+aCSF; (2) BIBP+aCSF+aCSF; (3) aCSF+P32/98+aCSF; (4) BIBP+P32/98+aCSF; (5) aCSF+aCSF+NPY; (6) BIBP+aCSF+NPY; (7) aCSF+[…]+NPY; (8) BIBP+P32/98+NPY. […] The time spent in active social interaction (SI-time), 1 h, and 12 h food-intake were measured. […]
Social interaction (SI) test. […] Behavior was monitored using a video camera placed above the field inside the testing/isolation box. The SI behavior of both rats was recorded on-line from a monitor placed outside on top of the box. The following parameters were scored by an observer (HPN) unaware of the substrain of rats: duration of time spent in sniffing, following, crawling under and over other rats, but not passive body contact (resting, sleeping). […]
(§4) Statistical analysis. Data obtained from the measures SI time and 1 h food intake were analyzed by one-way (factor: “treatment”) ANOVA. […]

[2] = test system: Male WistarF/Han (WF) rats; assay: 1 h food-intake with Y1R antagonist BIBP3226, P32/98 and NPY (Example 4); type: in vivo, rat; details: i.c.v. 50 nmol
Description: as §1, §2, §3, §4

CC[C@H](C)[C@H](N)C(=O)N1CCSC1 [P32/98]
SI-time, P32/98 alone [1]: acts not anxiolytic-like | 1 h food-intake, P32/98 alone [2]: non-significant slight increase of feeding
